Experimental data taken from paper PMC8287630 (Journal for Immunotherapy of Cancer, 2021).

Assays:
DCs and T cells = experiment: Immunomodulatory effects in vivo (immunophenotype of DCs and T cells, cytokines); design: species or system mice; details: CHA-SME 35 mg/kg; versus control treatment
Experimental: The in vivo immunomodulatory effects of CHA-SME were evaluated by analyzing the immunophenotype of LYM and cytokine production. LYM (DCs and T cells) infiltrated into the blood, tumor, and other important immune organs (MLNs and spleen) were quantitatively analyzed by flow cytometry. Fresh tumors were cut into small pieces and digested at 37°C for 40 min. Fresh MLNs and spleens were cut into small pieces and ground into single-cell suspensions. The cells were collected, washed, and incubated with different fluorescein-conjugated antibodies. The cell suspensions were filtered through 400-mesh sieves after two washes and analyzed by flow cytometry ([…] Biosciences, San Diego, California, USA). For immunophenotype analysis of T cells, CD45 +CD3+CD44+CD62L+cells and CD45 +CD3+CD44+CD62 L-cells were considered to be central memory T cells (TCM) and effector memory T cells (TEM), respectively. For DC maturation analysis, the expression levels of MHC I, CD40, CD80, and CD86 on DCs were examined. Different cytokines (IFN-γ, tumor necrosis factor α (TNF-α), and IL-10) in tumors, MLNs, spleens, and blood were quantitatively determined using bead-based LEGENDplex kits following the manufacturer's protocol.

[1] = Pharmacokinetic study in beagle dogs; assay type: in vivo; details: dog, plasma, 30 mg/kg
Experimental: (§1) Pharmacokinetic studies of free CHA and CHA-SME were performed using SD rats and beagle dogs. […] At 5, 15, 30 min, 1, 2, 4, 6, and 8 hours, approximately 0.2 mL of blood was collected from the orbital into an anticoagulant tube and centrifuged at 4500 rpm for 10 min to separate the plasma. All plasma samples were stored frozen at –80°C until LC-MS/MS analysis (TSQ Quantum Access MAX; Thermo Fisher Scientific, Waltham, MA, USA).

G422 glioma = experiment: In vivo antitumor efficacy, subcutaneous G422 glioma model; design: species or system ICR mice; details: 14 days; CHA 20 mg/kg i.p., CHA-SME 35 mg/kg p.o.
Experimental: A subcutaneous glioma tumor model was established in female ICR mice, as mentioned above. […] The positive control group was orally administered TMZ (50 mg/kg) for 5 days. The blank CHA-SME group was orally administered with blank CHA-SME for 14 days. At the end of the experiment, all mice were euthanized, and the tumors were collected, weighed, and photographed. […] The positive control group was orally administered TMZ (50 mg/kg) for 5 days. […] The CHA-SME group was orally administered CHA-SME (35 mg/kg) for 14 days. At the end of the experiment, all mice were euthanized, and the tumors were collected, weighed, and photographed.

[2] = In vivo safety evaluation (body weight, hematology, serum biochemistry, histopathology); design: species or system mice; details: for histopathology of heart, liver, spleen, lung and kidney: HE staining, versus control group; for animal behavior and body weight after administration: tumor-bearing mice
Experimental: The in vivo safety of CHA-SME was evaluated based on body weight, hematological examination, and histopathological examination in mice. Body weight was monitored throughout the experiment. At the end of the in vivo antitumor experiment, peripheral blood was collected for hematological examination using an automatic hematology analyzer (MEK-7222 K; Nihon Kohden, Tokyo, Japan). Additionally, the serum was separated to detect […] (ALT), […] (AST), blood urea nitrogen (BUN), and creatinine (CRE) to evaluate hepatic and renal functions using an automatic biochemical analyzer (Accute TBA-40FR; TOSHIBA, Kawasaki, Japan). Heart, liver, spleen, lung, kidney, stomach, small intestine, and MLNs were collected, fixed in 4% PFA, and subjected to histopathological examination using HE staining.

[3] = Pharmacokinetic study in rats; assay type: in vivo; details: male, SD, rat, plasma, po, 30 mg/kg
Experimental: as §1

[4] = test system: several human cancer cell lines; details: cited from earlier work
Caco-2 cell monolayers = experiment: Transport within Caco-2 cell monolayers (CLSM); assay type: cell-based, human; details: 4 hours incubation
Experimental: To establish an in vitro Caco-2 cell monolayer model, Caco-2 cells were plated in a 12-well Transwell plate with a 0.4 µm pore polycarbonate membrane insert (Corning, Corning, New York, USA). A total of 0.5 mL of cell culture medium containing 2×10^5 cells was added in the upper compartment of each Transwell insert, and 1.5 mL of cell culture medium was added in the lower compartment. The culture medium in both compartments was changed every other day in the initial 14 days and every day in the following 7 days. After 21 days of culture, transepithelial electrical resistance (TEER) was measured using Millicell-ERS (Millipore, Billerica, Massachusetts, USA) to monitor cell monolayer integrity. A TEER value exceeding 800 Ω was selected for subsequent transepithelial transport study of CHA-SME.
For the transepithelial transport study of CHA-SME, Caco-2 cell monolayers cultured in Transwell plates were incubated with Cou-6-labeled CHA-SME for 4 hours at 37°C. Then, the cells were washed thrice with cold PBS, and the polycarbonate membrane with cultured cells was carefully cut from the insert. After fixation with 4% PFA and staining with TRITC phalloidin and DAPI, the excised membrane was placed in a glass slide and examined by CLSM.

[5] = assay type: in vivo; details: mice, oral 1 mg/kg, 30 min; figure 5C
Experimental: To evaluate the uptake of CHA-SME in the intestinal tissues and MLNs, Cou-6-labeled CHA-SME were orally administered to mice at 1 mg/kg. Thirty minutes later, the mice were sacrificed and intestinal segments (including duodenum, jejunum, ileum, and colon,~1 cm each) and MLNs were surgically collected, placed in embedding compound, frozen in liquid nitrogen, and dissected. The slices were fixed with 4% PFA, stained with TRITC phalloidin and DAPI, and imaged using CLSM. Additionally, MLNs were ground into single-cell suspensions and the fluorescence intensity was determined by flow cytometry.
To investigate the lymphatic transport of CHA-SME in vivo, mice were i.p. administered 3.0 mg/kg cycloheximide to block chylomicron flow.[37 38] One-hour postinjection, DiR-labeled or Cou-6-labeled CHA-SME was orally administered at 1.0 mg/kg. The mice were examined as described above.

Which results are given for `O=C(/C=C/c1ccc(O)c(O)c1)O[C@@H]1C[C@](O)(C(=O)O)C[C@@H](O)[C@H]1O` [CHA, Chlorogenic acid]?
proportion of infiltrating CD3+, CD4+ and CD8+ T cells in brain glioma tissues (DCs and T cells): no significant difference; bioavailability ([1]; oral, read-out: oral absolute bioavailability): 5.85%; AUC ([1]; po, read-out: AUC Mean±SD): 692 ± 179 ng·h/mL; tumor growth (G422 glioma): able to inhibit tumor growth; histopathology of heart, liver, spleen, lung and kidney [2]: no obvious organ lesion; animal behavior and body weight after administration [2]: tolerated the regimens well; AUC [3]: 35.8 ± 10.9 ng·h/mL; effective dose for inhibition of cell proliferation / induction of apoptosis [4]: higher than 100 µM

With `CCN(CC)c1ccc2cc(-c3nc4ccccc4s3)c(=O)oc2c1` [Cou-6, Coumarin-6] as the compound, how does the “green fluorescence within Caco-2 cell monolayers” value (Caco-2 cell monolayers) read?
The value was “negligible green fluorescence”.

And the “percentage of Cou-6-positive lymphocytes in MLNs” value [5]?
Its value is 7.2%.

For `Cn1nnc2c(C(N)=O)ncn2c1=O` [TMZ, temozolomide], which “histopathology of heart, liver, spleen, lung and kidney” value [2] is on record?
Its value is “a certain degree of fragmentation and pathological changes in the heart and spleen”.

And the “animal behavior and body weight after administration” value [2]?
Its value is “marked weight loss and sparse hair”.
